Data: US7985771B2, “Furanone derivatives” (Monsanto Technology LLC, priority 2002, dated 2011)

These compounds were tested on IL-1beta release from a mouse microglial cell line (assay: Interleukin-1 beta microglial cell assay). Settings: LPS and IFN gamma stimulation, 24 hours, read-out: inhibition of IL-1beta induction, EC50.
Type: cell-based
Method: This assay measures the release of IL-1β from a mouse microglial cell line following an inflammatory challenge with LPS and interferon-gamma. The ability of test articles to inhibit microglial cell activation and IL-1beta release is determined by co-incubation of the test article with the inflammatory challenge. Cytokine release is measured using a mouse IL-1β ELISA and cell toxicity is determined using Cell Tracker Green (a fluorescent dye that measures cell viability).
Mouse microglial cells were seeded in poly-D-lysine coated 96-well plates at a density of 10,000 cells/well and allowed to attach for 24 hours. Cells were stimulated by addition of LPS (10 μg/ml) and IFN gamma (10 ng/ml) in the presence or absence of test article. The cells were then incubated for 24 hours at 37° C., after which time the media was removed and used for cytokine determination as described below.
Viability of mouse microglial cells after exposure to the test article was determined using a fluorescent viability dye, Cell Tracker Green. Cell Tracker Green was used at a working concentration of 5 μM in 1× HBSS. Cells were washed once with HBSS (200 μl/well) and 100 μl Cell Tracker Green was added to each well. Cells were then incubated at 37° C. for 30 minutes, after which time the Cell Tracker was removed and the cells were washed once with HBSS (200 μl/well). 100 μl fresh HBSS was added to each well and the plate was read on a Fluoroskan plate reader using an excitation wavelength of 485 nm and an emission wavelength of 538 nm.
1. The IL-1β capture antibody was reconstituted in 1 ml of PBS to give a final concentration of 720 μg/ml, and the working concentration was 4 μg/ml. For coating one 96-well plate (at 100 μl/well) 56 μl of the 720 μg/ml stock was diluted into 10 ml of PBS. 2. The IL-1β standards were reconstituted in 0.5 ml of Reagent Diluent (70 ng/ml). For a high standard of 1 ng/ml (2 wells at 100 μl each+enough for series dilution) 7.1 μl of the 70 ng/ml standard were diluted into 0.5 ml of Reagent Diluent 3. The IL-1β detection antibody was reconstituted in 1 ml of Reagent Diluent to give a final concentration of 18 μg/ml and the working concentration is 100 ng/ml. For one 96-well plate (at 100 μl/well) 56 μl of the 18 μg/ml stock was diluted into 10 ml of Reagent Diluent.
1. The Costar EIA Hi-binding plate was coated with capture antibody at 4 μg/ml. Each well was coated with 100 μl, and the plate was sealed and incubated overnight at room temperature.
2. Each well was aspirated and washed 3× with Wash Buffer. Each well was filled to the top, dispensed, and any remaining buffer was removed by inverting the plate and gently blotting against clean paper towels.
3. Non-specific binding sites were blocked by adding 300 μl of Blocking Buffer to each well, and after sealing incubating for at least 1 hour at room temperature.
5. 100 μl of either standard or sample were added in each well of the capture-coated and pre-blocked plate. The plate was sealed and incubated for 2 hours at room temperature, followed with washing as in step 2.
6. 100 μl of the detection antibody ([…]) were added to each well.
7. The plate was sealed and incubated at room temperature for 2 hours, followed with washing as in step 2.
8. 100 μl of the working dilution of Streptavidin-HRP was added, and the plate was sealed and incubated in the dark for 20 minutes at room temperature, followed with washing as in Step 2.
9. The fresh Substrate Solution was prepared by mixing Color Reagent A (H2O2) and Color Reagent B (Tetramethylbenzidine) in a 1:1 ratio. 100 μl of this Substrate Solution mixture was added to each well and the plate was incubated in the dark for 20 minutes at room temperature. 10. 50 μl of Stop Solution was added to each well, mixing was ensured by gently tapping. 11. Each plate was read with the Spectramax once at 450 nm. Results

EC50, ≤ 20 µM:
COC(=O)C1(CSc2nc3ccccc3s2)OC(=O)C(O)=C1Sc1nc2ccccc2o1 (centres unmarked) [3-(Benzooxazol-2-ylsulfanyl)-2-(benzothiazol-2-ylsulfanylmethyl)-4-hydroxy-5-oxo-2,5-dihydro-furan-2-carboxylic acid methyl ester]
CCOC(=O)C1(CSCc2ccco2)OC(=O)C(O)=C1SCc1ccco1 (centres unmarked) [3-(Furan-2-ylmethylsulfanyl)-2-(furan-2-ylmethylsulfanylmethyl)-4-hydroxy-5-oxo-2,5-dihydro-furan-2-carboxylic acid ethyl ester]
CCCCSCC1(C(=O)OCC)OC(=O)C(O)=C1SCCCC (centres unmarked) [3-Butylsulfanyl-2-butylsulfanylmethyl-4-hydroxy-5-oxo-2,5-dihydro-furan-2-carboxylic acid ethyl ester]
CCOC(=O)C1(CSCc2ccco2)OC(=O)C(OC(=O)C(C)(C)C)=C1SCc1ccco1 (centres unmarked) [4-(2,2-Dimethyl-propionyloxy)-3-(furan-2-ylmethylsulfanyl)-2-(furan-2-ylmethylsulfanylmethyl)-5-oxo-2,5-dihydro-furan-2-carboxylic acid ethyl ester]
O=C1OC(CO)(CSc2nc3ccccc3o2)C(Sc2nc3ccccc3o2)=C1O (centres unmarked) [4-(Benzooxazol-2-ylsulfanyl)-5-(benzooxazol-2-ylsulfanylmethyl)-3-hydroxy-5-hydroxymethyl-5H-furan-2-one]
CCOC(=O)C1(CSCc2ccc(OC)cc2)OC(=O)C(O)=C1SCc1ccc(OC)cc1 (centres unmarked) [4-Hydroxy-3-(4-methoxy-benzylsulfanyl)-2-(4-methoxy-benzylsulfanylmethyl)-5-oxo-2,5-dihydro-furan-2-carboxylic acid ethyl ester]
CCOC(=O)C1(CSc2nccc(C)n2)OC(=O)C(O)=C1Sc1nccc(C)n1 (centres unmarked) [4-Hydroxy-3-(4-methyl-pyrimidin-2-ylsulfanyl)-2-(4-methyl-pyrimidin-2-ylsulfanylmethyl)-5-oxo-2,5-dihydro-furan-2-carboxylic acid ethyl ester]
CCOC(=O)C1(CSc2ncccn2)OC(=O)C(O)=C1Sc1ncccn1 (centres unmarked) [4-Hydroxy-5-oxo-3-(pyrimidin-2-ylsulfanyl)-2-(pyrimidin-2-ylsulfanylmethyl)-2,5-dihydro-furan-2-carboxylic acid ethyl ester]
